ChEMBL document CHEMBL1926642, “Relevance of the C-5 position to schweinfurthin induced cytotoxicity” (2011)

Tests used:
Format in all cases: functional
CCRF-CEM = experiment: Growth inhibition of human CCRF-CEM cells after 48 hrs by sulforhodamine B assay; settings: for TGI: read-out: pTGI (converted)
HOP-62 = experiment: Growth inhibition of human HOP62 cells after 48 hrs by sulforhodamine B assay; settings: HOP-62, 48 h; for TGI: read-out: pTGI (converted)
HOP-92 = experiment: Growth inhibition of human HOP92 cells after 48 hrs by sulforhodamine B assay; settings: HOP-92, 48 h; for TGI: read-out: pTGI (converted)
NCI-H23 = experiment: Growth inhibition of human NCI-H23 cells after 48 hrs by sulforhodamine B assay; settings: NCI-H23, 48 h; for TGI: read-out: pTGI (converted)
NCI-H322M = experiment: Growth inhibition of human NCI-H322M cells after 48 hrs by sulforhodamine B assay; settings: for TGI: read-out: pTGI (converted)
A549 = experiment: Growth inhibition of human A549 cells after 48 hrs by sulforhodamine B assay; settings: A549, 48 h; for TGI: read-out: pTGI (converted)
NCI-H460 = experiment: Growth inhibition of human NCI-H460 cells after 48 hrs by sulforhodamine B assay; settings: NCI-H460, 48 h; for TGI: read-out: pTGI (converted)
HCT-15 = experiment: Growth inhibition of human HCT15 cells after 48 hrs by sulforhodamine B assay; settings: HCT-15, 48 h; for TGI: read-out: pTGI (converted)
KM12 = experiment: Growth inhibition of human KM12 cells after 48 hrs by sulforhodamine B assay; settings: KM12, 48 h; for TGI: read-out: pTGI (converted)
SF-295 = experiment: Growth inhibition of human SF295 cells after 48 hrs by sulforhodamine B assay; settings: SF-295, 48 h; for TGI: read-out: pTGI (converted)
SNB-19 = experiment: Growth inhibition of human SNB19 cells after 48 hrs by sulforhodamine B assay; settings: SNB-19, 48 h; for TGI: read-out: pTGI (converted)
SNB-75 = experiment: Growth inhibition of human SNB75 cells after 48 hrs by sulforhodamine B assay; settings: SNB-75, 48 h; for TGI: read-out: pTGI (converted)
Malme-3M = experiment: Growth inhibition of human MALME-3M cells after 48 hrs by sulforhodamine B assay; settings: for TGI: read-out: pTGI (converted)
SK-MEL-5 = experiment: Growth inhibition of human SK-MEL-5 cells after 48 hrs by sulforhodamine B assay; settings: SK-MEL-5, 48 h; for TGI: read-out: pTGI (converted)
UACC-62 = experiment: Growth inhibition of human UACC62 cells after 48 hrs by sulforhodamine B assay; settings: UACC-62, 48 h; for TGI: read-out: pTGI (converted)
IGROV-1 = experiment: Growth inhibition of human IGROV1 cells after 48 hrs by sulforhodamine B assay; settings: IGROV-1, 48 h; for TGI: read-out: pTGI (converted)
OVCAR-5 = experiment: Growth inhibition of human OVCAR5 cells after 48 hrs by sulforhodamine B assay; settings: OVCAR-5, 48 h; for TGI: read-out: pTGI (converted)
OVCAR-8 = experiment: Growth inhibition of human OVCAR8 cells after 48 hrs by sulforhodamine B assay; settings: OVCAR-8, 48 h; for TGI: read-out: pTGI (converted)
SK-OV-3 = experiment: Growth inhibition of human SKOV3 cells after 48 hrs by sulforhodamine B assay; settings: SK-OV-3, 48 h; for TGI: read-out: pTGI (converted)
786-0 = experiment: Growth inhibition of human 786-0 cells after 48 hrs by sulforhodamine B assay; settings: 786-0, 48 h; for CC50: read-out: pLC50 (the source's name) (converted); for TGI: read-out: pTGI (converted)
RXF 393 = experiment: Growth inhibition of human RXF393 cells after 48 hrs by sulforhodamine B assay; settings: RXF 393, 48 h; for TGI: read-out: pTGI (converted)
SN12C = experiment: Growth inhibition of human SN12C cells after 48 hrs by sulforhodamine B assay; settings: for TGI: read-out: pTGI (converted)
PC-3 = experiment: Growth inhibition of human PC3 cells after 48 hrs by sulforhodamine B assay; settings: PC-3, 48 h; for CC50: read-out: pLC50 (the source's name) (converted); for TGI: read-out: pTGI (converted)
MCF7 = experiment: Growth inhibition of human MCF7 cells after 48 hrs by sulforhodamine B assay; settings: MCF7, 48 h; for TGI: read-out: pTGI (converted)
MDA-MB-231 = experiment: Growth inhibition of human MDA-MB-231/ATCC cells after 48 hrs by sulforhodamine B assay; settings: MDA-MB-231, 48 h; for CC50: read-out: pLC50 (the source's name) (converted); for TGI: read-out: pTGI (converted)
T47D = experiment: Growth inhibition of human T47D cells after 48 hrs by sulforhodamine B assay; settings: for TGI: read-out: pTGI (converted)

COc1cc(/C=C/c2ccc3c(c2)C[C@@H]2C(C)(C)[C@H](O)CC[C@@]2(C)O3)cc(O)c1C/C=C(\C)CCC=C(C)C
GI50 (CCRF-CEM): 8.32 µM | LC50 (CCRF-CEM): > 100 µM | TGI (CCRF-CEM): > 100 µM | GI50 (HOP-62): 6.17 µM | LC50 (HOP-62): 52.5 µM | TGI (HOP-62): 20 µM | GI50 (HOP-92): 17.8 µM | LC50 (HOP-92): > 100 µM | TGI (HOP-92): 49 µM | GI50 (NCI-H23): 15.1 µM | LC50 (NCI-H23): 60.3 µM | TGI (NCI-H23): 30.2 µM | GI50 (NCI-H322M): 26.3 µM | LC50 (NCI-H322M): > 100 µM | TGI (NCI-H322M): 87.1 µM | LC50 (A549): > 100 µM | GI50 (A549; read-out: GI50): 13.2 µM | GI50 (A549; read-out: pGI50 (converted)): 13.2 µM | TGI (A549): 39.8 µM | GI50 (NCI-H460): 7.41 µM | LC50 (concentration killing 50% of cells) (NCI-H460): 55 µM | TGI (NCI-H460): 21.9 µM | GI50 (HCT-15): 6.31 µM | LC50 (HCT-15): 58.9 µM | TGI (HCT-15): 20.9 µM | GI50 (KM12): 2.63 µM | LC50 (KM12): 21.9 µM | TGI (KM12): 6.46 µM | LC50 (SF-295): 38.9 µM | GI50 (SF-295; read-out: GI50): 1.66 µM | GI50 (SF-295; read-out: pGI50 (converted)): 1.66 µM | TGI (SF-295): 5.89 µM | GI50 (SNB-19): 15.5 µM | LC50 (SNB-19): 91.2 µM | TGI (SNB-19): 37.2 µM | GI50 (SNB-75): 5.37 µM | LC50 (SNB-75): > 100 µM | TGI (SNB-75): 42.7 µM | GI50 (Malme-3M): 17.8 µM | LC50 (Malme-3M): 91.2 µM | TGI (Malme-3M): 40.7 µM | GI50 (SK-MEL-5): 8.71 µM | LC50 (SK-MEL-5): 49 µM | TGI (SK-MEL-5): 21.4 µM | GI50 (UACC-62): 12.9 µM | LC50 (50% lethal concentration) (UACC-62): 70.8 µM | TGI (UACC-62): 30.2 µM | GI50 (IGROV-1): 14.5 µM | LC50 (IGROV-1): 70.8 µM | TGI (IGROV-1): 31.6 µM | GI50 (OVCAR-5): 27.5 µM | LC50 (OVCAR-5): > 100 µM | TGI (OVCAR-5): 79.4 µM | GI50 (OVCAR-8): 25.1 µM | LC50 (OVCAR-8): > 100 µM | TGI (OVCAR-8): 74.1 µM | GI50 (SK-OV-3): 22.9 µM | LC50 (SK-OV-3): > 100 µM | TGI (SK-OV-3): > 100 µM | GI50 (786-0): 2.95 µM | CC50 (786-0): 42.7 µM | TGI (786-0): 12 µM | GI50 (RXF 393): 1.29 µM | LC50 (50% lethal concentration) (RXF 393): 6.61 µM | TGI (RXF 393): 2.88 µM | GI50 (SN12C): 18.2 µM | LC50 (SN12C): 70.8 µM | TGI (SN12C): 36.3 µM | GI50 (PC-3): 8.51 µM | CC50 (PC-3): > 100 µM | TGI (PC-3): 56.2 µM | GI50 (MCF7): 16.6 µM | LC50 (MCF7): 79.4 µM | TGI (MCF7): 36.3 µM | GI50 (MDA-MB-231): 10 µM | CC50 (MDA-MB-231): 95.5 µM | TGI (MDA-MB-231): 30.9 µM | GI50 (T47D): 20.9 µM | LC50 (T47D): > 100 µM | TGI (T47D): 58.9 µM

COc1cc(/C=C/c2cc(F)c3c(c2)C[C@@H]2C(C)(C)[C@H](O)CC[C@@]2(C)O3)cc(O)c1C/C=C(\C)CCC=C(C)C
GI50 (CCRF-CEM): 1.86 µM | LC50 (CCRF-CEM): > 100 µM | TGI (CCRF-CEM): 4.37 µM | GI50 (HOP-62): 7.41 µM | LC50 (HOP-62): 44.7 µM | TGI (HOP-62): 20 µM | GI50 (HOP-92): 3.39 µM | LC50 (HOP-92): 57.5 µM | TGI (HOP-92): 12.6 µM | GI50 (NCI-H23): 2.09 µM | LC50 (NCI-H23): 20.9 µM | TGI (NCI-H23): 5.25 µM | GI50 (NCI-H322M): 34.7 µM | LC50 (NCI-H322M): > 100 µM | TGI (NCI-H322M): > 100 µM | LC50 (A549): 15.8 µM | GI50 (A549; read-out: GI50): 2.14 µM | GI50 (A549; read-out: pGI50 (converted)): 2.14 µM | TGI (A549): 4.9 µM | GI50 (NCI-H460): 1.86 µM | LC50 (concentration killing 50% of cells) (NCI-H460): 6.76 µM | TGI (NCI-H460): 3.55 µM | GI50 (HCT-15): 12.3 µM | LC50 (HCT-15): 66.1 µM | TGI (HCT-15): 28.8 µM | GI50 (KM12): 1.91 µM | LC50 (KM12): 8.32 µM | TGI (KM12): 3.98 µM | LC50 (SF-295): 69.2 µM | GI50 (SF-295; read-out: GI50): 5.01 µM | GI50 (SF-295; read-out: pGI50 (converted)): 5.01 µM | TGI (SF-295): 21.4 µM | GI50 (SNB-19): 12.6 µM | LC50 (SNB-19): 55 µM | TGI (SNB-19): 26.3 µM | GI50 (SNB-75): 2.95 µM | LC50 (SNB-75): 37.2 µM | TGI (SNB-75): 13.8 µM | GI50 (Malme-3M): 14.8 µM | LC50 (Malme-3M): 89.1 µM | TGI (Malme-3M): 36.3 µM | GI50 (SK-MEL-5): 7.08 µM | LC50 (SK-MEL-5): 44.7 µM | TGI (SK-MEL-5): 20 µM | GI50 (UACC-62): 14.1 µM | LC50 (50% lethal concentration) (UACC-62): 63.1 µM | TGI (UACC-62): 29.5 µM | GI50 (IGROV-1): 2.95 µM | LC50 (IGROV-1): 53.7 µM | TGI (IGROV-1): 7.94 µM | GI50 (OVCAR-5): 19.1 µM | LC50 (OVCAR-5): > 100 µM | TGI (OVCAR-5): 70.8 µM | GI50 (OVCAR-8): 4.37 µM | LC50 (OVCAR-8): 50.1 µM | TGI (OVCAR-8): 16.2 µM | GI50 (SK-OV-3): 17 µM | LC50 (SK-OV-3): 57.5 µM | TGI (SK-OV-3): 30.9 µM | GI50 (786-0): 3.31 µM | CC50 (786-0): 38.9 µM | TGI (786-0): 10.2 µM | GI50 (RXF 393): 1.82 µM | LC50 (50% lethal concentration) (RXF 393): 10 µM | TGI (RXF 393): 4.27 µM | GI50 (SN12C): 14.5 µM | LC50 (SN12C): > 100 µM | TGI (SN12C): 39.8 µM | GI50 (PC-3): 5.13 µM | CC50 (PC-3): > 100 µM | TGI (PC-3): 25.1 µM | GI50 (MCF7): 13.8 µM | LC50 (MCF7): 64.6 µM | TGI (MCF7): 30.2 µM | GI50 (MDA-MB-231): 6.61 µM | CC50 (MDA-MB-231): 97.7 µM | TGI (MDA-MB-231): 26.9 µM | GI50 (T47D): 12.3 µM | LC50 (T47D): 77.6 µM | TGI (T47D): 30.9 µM
